Holding throughout (assay): cells
What all share (assay type): cell-based

In test [1] the test system is A549. Conditions: Homo sapiens; for GI50: concentration that produces 50% growth inhibition; for IC (total growth inhibition): total growth inhibition (cytostatic effect), read-out: TGI. The text has this: (§1) The aim of this assay is to evaluate the in vitro cytostatic (ability to delay or arrest tumor cell growth) or cytotoxic (ability to kill tumor cells) activity of the samples being tested.
(§2) A colorimetric type of assay, using sulforhodamine B (SRB) reaction has been adapted for a quantitative measurement of cell growth and viability (following the technique described by Skehan P et al. J. Natl. Cancer Inst. 1990, 82, 1107-1112).
(§3) This form of assay employs SBS-standard 96-well cell culture microplates (Faircloth et al. Methods in cell science, 1988, 11(4), 201-205; Mosmann et al, Journal of Immunological. Methods, 1983, 65(1-2), 55-63). All the cell lines used in this study, derived from different types of human cancer, were obtained from the American Type Culture Collection (ATCC).
(§4) Cells were maintained in Dulbecco's Modified Eagle Medium (DMEM) supplemented with 10% Fetal Bovine Serum (FBS), 2 mM L-glutamine, 100 U/mL penicillin and 100 U/mL streptomycin at 37° C., 5% CO2 and 98% humidity. For the experiments, cells were harvested from subconfluent cultures using trypsinization and resuspended in fresh medium before counting and plating.
(§5) Cells were seeded in 96 well microtiter plates at 5×10^3 cells per well in aliquots of 150 μL, and allowed to attach to the plate surface for 18 hours in drug free medium. One control (untreated) plate of each cell line was fixed (as described below) and used for time zero reference value. Afterwards, test samples were added to the cultures in ten serial dilutions, in aliquots of 50 μL, ranging from 10 to 0.00262 μg/mL. After 48 hours exposure, the antitumor effect was estimated by the SRB method: Briefly, cells were washed twice with PBS, fixed for 15 min in 1% glutaraldehyde solution, rinsed twice in PBS, and stained in 0.4% SRB solution for 30 min at room temperature. Cells were then rinsed several times with 1% acetic acid solution and air-dried. SRB was then extracted in 10 mM trizma base solution and the absorbance measured in an automated spectrophotometric plate reader at 490 nm. Cell survival was expressed as percentage of control cell growth. The final effect of the sample being tested was estimated by applying the NCI algorithm (Boyd M R and Paull K D. Drug Dev. Res. 1995, 34, 91-104).
(§6) Using the mean±SD of triplicate cultures, a dose-response curve was automatically generated using nonlinear regression analysis. Three reference parameters were calculated (NCI algorithm) by automatic interpolation: GI50=concentration that produces 50% growth inhibition; TGI=total growth inhibition (cytostatic effect) and LC50=concentration that produces 50% net cell killing (cytotoxic effect).

Test [2] has as its system HT29. Conditions: Homo sapiens; for GI50: concentration that produces 50% growth inhibition; for IC (total growth inhibition): total growth inhibition (cytostatic effect), read-out: TGI.
Source text: as §1, §2, §3, §4, §5, §6

The subject of test [3] is MDA-MB-231. Particulars: Homo sapiens; for GI50: concentration that produces 50% growth inhibition; for IC (total growth inhibition): read-out: TGI.
Source text: as §1, §2, §3, §4, §5, §6

The mark [4] stands for this setting: MDA-MB-231, 48 h, read-out: LC50.
Setting [5] is: MDA-MB-231, 48 hours exposure, total growth inhibition (cytostatic effect).
Where [6] appears, read: A549, 48 hours exposure, concentration that produces 50% net cell killing, read-out: LC50 (the source's name).
Where [7] appears, read: HT-29, HT29, 48 hours exposure, concentration that produces 50% net cell killing, read-out: LC50 (the source's name).
Setting [8] is: MDA-MB-231, 48 hours exposure, concentration that produces 50% net cell killing, read-out: LC50 (the source's name).

Read-outs that look alike come from different tables or passages of the source. Bounds are passed on as bounds.

On to `COC1=CC[C@@H]([C@@H](C)/C=C(C)/C=C\C=C/C(=O)N[C@H](C(=O)N/C=C\C[C@H](C/C=C(\C)Cl)OC(N)=O)C(C)(C)C)O[C@H]1O` [Compound 85], for which the CC50 in test [1] (A549, 48 h, read-out: LC50) was over 16.4 nM; in test [2] (HT-29, 48 h, read-out: LC50), 1.97 nM; in test [3] (setting [4]), over 16.4 nM. For the same compound, the GI50 stood at 0.723 nM in test [1] (A549, 48 hours exposure); 0.345 nM in test [2] (HT-29, HT29, 48 hours exposure); 1.02 nM in test [3] (MDA-MB-231, 48 hours exposure). Also, the IC (total growth inhibition) in test [1] (A549, 48 hours exposure) amounted to 0.00164 µM; in test [2] (HT-29, HT29, 48 hours exposure) it was 0.000625 µM; in test [3] (setting [5]), 0.00181 µM.
For the compound `C/C=C\C[C@H](O)C/C=C\NC(=O)[C@@H](NC(=O)C#C/C=C\C(C)=C\[C@H](C)[C@@H]1CC=C(OC)C(=O)O1)C(C)(C)C` [Compound 80], the CC50 in test [1] (A549, 48 h, read-out: LC50) was over 19000 nM; in test [2] (HT-29, 48 h, read-out: LC50), over 19000 nM; in test [3] (setting [4]), over 19000 nM. The GI50 turned out to be 93 nM in test [1] (A549, 48 hours exposure); 49.4 nM in test [2] (HT-29, HT29, 48 hours exposure); 152 nM in test [3] (MDA-MB-231, 48 hours exposure). Also, the IC (total growth inhibition) in test [1] (A549, 48 hours exposure) is 0.304 µM; in test [2] (HT-29, HT29, 48 hours exposure), 0.0949 µM; in test [3] (setting [5]), over 19 µM.
With `COC1=CC[C@@H]([C@@H](C)/C=C(C)/C=C\C#CC(=O)N[C@H](C(=O)N/C=C\C[C@H](C/C=C(\C)Cl)O[Si](C)(C)C(C)(C)C)C(C)C)OC1=O` [Compound 64b], the GI50 in test [1] (A549, 48 hours exposure) amounted to 680 nM; in test [2] (HT-29, HT29, 48 hours exposure), 423 nM; in test [3] (MDA-MB-231, 48 hours exposure), 1330 nM. For the same compound, the CC50 in test [1] (setting [6]) was over 15100 nM; in test [2] (setting [7]) it was 2420 nM; in test [3] (setting [8]), over 15100 nM. The IC (total growth inhibition) is 3.33 µM in test [1] (A549, 48 hours exposure); 0.65 µM in test [2] (HT-29, HT29, 48 hours exposure); over 15.1 µM in test [3] (setting [5]).
For `COC1=CC[C@@H]([C@@H](C)/C=C(C)/C=C\C#CC(=O)NC(C(=O)N/C=C\C[C@H](C/C=C(\C)Cl)O[Si](c2ccccc2)(c2ccccc2)C(C)(C)C)C(C)(C)C)OC1=O` (stereo partly drawn) [Compound 78], the GI50 is over 12500 nM in test [1] (A549, 48 hours exposure); over 12500 nM in test [2] (HT-29, HT29, 48 hours exposure); over 12500 nM in test [3] (MDA-MB-231, 48 hours exposure). Moreover, the CC50 in test [1] (setting [6]), in test [2] (setting [7]) and in test [3] (setting [8]) was over 12500 nM in each case. Further, the IC (total growth inhibition) in test [1] (A549, 48 hours exposure) was over 12.5 µM; in test [2] (HT-29, HT29, 48 hours exposure), over 12.5 µM; in test [3] (setting [5]) it was over 12.5 µM.
Take `COC1=CC[C@@H]([C@@H](C)/C=C(C)/C=C\C#CC(=O)N[C@H](C(=O)N/C=C\C[C@@H](O)C/C=C(\C)Cl)C(C)C)OC1=O` [Compound 65b]: the CC50 in test [1] (A549, 48 h, read-out: LC50) was over 18300 nM; in test [2] (HT-29, 48 h, read-out: LC50) it was over 18300 nM; in test [3] (setting [4]), over 18300 nM. For the same compound, the concentration for 50% growth inhibition (GI50) in test [1] (A549, 48 hours exposure) was 311 nM; in test [2] (HT-29, HT29, 48 hours exposure) it was 183 nM; in test [3] (MDA-MB-231, 48 hours exposure) it was 548 nM. The IC (total growth inhibition) was 1.81 µM in test [1] (A549, 48 hours exposure); 0.494 µM in test [2] (HT-29, HT29, 48 hours exposure); over 18.3 µM in test [3] (MDA-MB-231, 48 h).
`C/C=C\C[C@@H](C/C=C\NC(=O)[C@@H](NC(=O)C#C/C=C\C(C)=C\[C@H](C)[C@@H]1CC=C(OC)C(=O)O1)C(C)(C)C)OC(N)=O` [Compound 81]: the CC50 was over 17600 nM in test [1] (A549, 48 h, read-out: LC50); over 17600 nM in test [2] (HT-29, 48 h, read-out: LC50); over 17600 nM in test [3] (setting [4]). Moreover, the GI50 in test [1] (A549, 48 hours exposure) came out at 2280 nM; in test [2] (HT-29, HT29, 48 hours exposure), 1260 nM; in test [3] (MDA-MB-231, 48 hours exposure) it was 2980 nM. For the same compound, the IC (total growth inhibition) in test [1] (A549, 48 hours exposure) is 8.43 µM; in test [2] (HT-29, HT29, 48 hours exposure), 2.98 µM; in test [3] (MDA-MB-231, 48 h), over 17.6 µM.
With `C/C=C\C[C@@H](C/C=C\NC(=O)[C@@H](NC(=O)\C=C/C=C\C(C)=C\[C@H](C)[C@@H]1CC=C(OC)[C@H](O)O1)C(C)(C)C)OC(N)=O` [Compound 89], the CC50 in test [1] (A549, 48 h, read-out: LC50) was 0.819 nM; in test [2] (HT-29, 48 h, read-out: LC50), 0.227 nM; in test [3] (setting [4]), over 1.74 nM. Further, the GI50 in test [1] (A549, 48 hours exposure) was determined as 0.138 nM; in test [2] (HT-29, HT29, 48 hours exposure), 0.0802 nM; in test [3] (MDA-MB-231, 48 hours exposure), 0.296 nM. Moreover, the IC (total growth inhibition) in test [1] (A549, 48 hours exposure) is 0.000279 µM; in test [2] (HT-29, HT29, 48 hours exposure), 0.000127 µM; in test [3] (MDA-MB-231, 48 h), over 0.00174 µM.
In the case of `CC#CC[C@H](O)C/C=C\NC(=O)[C@@H](NC(=O)\C=C/C=C\C(C)=C\[C@H](C)[C@@H]1CC=C(OC)C(=O)O1)C(C)(C)C` [Compound 71], the CC50 is 8540 nM in test [1] (A549, 48 h, read-out: LC50); over 19000 nM in test [2] (HT-29, 48 h, read-out: LC50); over 19000 nM in test [3] (setting [4]). Also, the GI50 in test [1] (A549, 48 hours exposure) was 266 nM; in test [2] (HT-29, HT29, 48 hours exposure), 58.9 nM; in test [3] (MDA-MB-231, 48 hours exposure) it was 209 nM. Besides, the IC (total growth inhibition) in test [1] (A549, 48 hours exposure) was determined as 1.84 µM; in test [2] (HT-29, HT29, 48 hours exposure), 0.175 µM; in test [3] (setting [5]) it was 2.85 µM.
On to `CC#CC[C@@H](C/C=C\NC(=O)[C@@H](NC(=O)\C=C/C=C\C(C)=C\[C@H](C)[C@@H]1CC=C(OC)C(=O)O1)C(C)(C)C)O[Si](c1ccccc1)(c1ccccc1)C(C)(C)C` [Compound 70], for which the GI50 worked out at 2090 nM in test [1] (A549, 48 hours exposure); 1960 nM in test [2] (HT-29, HT29, 48 hours exposure); 1700 nM in test [3] (MDA-MB-231, 48 hours exposure). The CC50 in test [1] (setting [6]) is 3270 nM; in test [2] (setting [7]) it was 4050 nM; in test [3] (setting [8]), 3530 nM. The IC (total growth inhibition) turned out to be 2.61 µM in test [1] (A549, 48 hours exposure); 2.74 µM in test [2] (HT-29, HT29, 48 hours exposure); 2.48 µM in test [3] (setting [5]).

A word on the GI50: it is the concentration giving 50% growth inhibition. Low readings indicate more potent growth inhibition, high ones less potent growth inhibition.
